What all share (assay): Bliss excess, mean over the matrix (fraction); higher = more synergy
The subject of assay [1] is ASH-3 (Thyroid Gland Carcinoma). The method, boiled down:
(§1)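 Cell lines grown in DMEM/F12 or RPMI with 10% FBS were plated in 1536-well plates and held 24 hours at 37°C, 5% CO2 before 72 hours of exposure to two-drug dose matrices, with DMSO typically at 0.2%. CellTiter-Glo 2.0 luminescence gave viability, which was converted to inhibition. Vehicle wells were set to 0 and blank wells to 1. Combination Emax is the second-highest inhibition in the matrix, and Bliss excess is the observed combination effect minus the expected EA + EB − EA·EB, where EA and EB are the single-agent effects.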

The subject of a further assay is BT-20 (Breast Carcinoma). The method, boiled down:
as §1

Assay [2] deals with BV-173 (Chronic Myelogenous Leukemia). A digest of the protocol:
as §1

Assay [3] has as its system EBC-1 (Squamous Cell Lung Carcinoma). A digest of the protocol: as §1
For a further assay, the system named is EW-13 (Ewing's Sarcoma). The method, boiled down: as §1
The next assay deals with EW-18 (Ewing's Sarcoma). The method, boiled down: as §1
The subject of the next assay is GOTO (Neuroblastoma). The method, boiled down:
as §1

In assay [4] the test system is LOU-NH91 (Squamous Cell Lung Carcinoma). A digest of the protocol:
as §1

In assay [5] the test system is NCI-H2405 (Lung Adenocarcinoma). A digest of the protocol: as §1
Assay [6] has as its system NCI-H322M (Lung Adenocarcinoma). A digest of the protocol:
as §1

Assay [7] concerns NCI-H513 (Other Solid Carcinomas). The method, boiled down:
as §1

The subject of another assay is NH-12 (Neuroblastoma). A digest of the protocol:
as §1

Assay [8] deals with OVISE (Ovarian Carcinoma). A digest of the protocol: as §1
In assay [9] the test system is PFSK-1 (Other Solid Carcinomas). The method, boiled down: as §1
In assay [10] the test system is H-EMC-SS (Chondrosarcoma). The method, boiled down:
as §1

The test system of assay [11] is KINGS-1 (Low Grade Glioma). The method, boiled down:
as §1

For assay [12], the system named is LC4-1 (B-Lymphoblastic Leukemia). The method, boiled down:
as §1

Assay [13] has as its system SCC-9 (Oral Cavity Carcinoma). The method, boiled down:
as §1

In assay [14] the test system is VMRC-LCD (Lung Adenocarcinoma). The method, boiled down: as §1
Assay [15] has as its system HSC-2 (Oral Cavity Carcinoma). The method, boiled down: as §1

Structures are written as SMILES.

On to `C[C@@H](c1ccc2nccn2c1)n1nnc2ncc(-c3cnn(C)c3)nc21` [Savolitinib] + CN(CC[C@H](CSC1=CC=CC=C1)NC2=C(C=C(C=C2)S(=O)(=O)NC(=O)C3=CC=C(C=C3)N4CCC(CC4)[C@H](C5=CC=CC=C5C6=CC=C(C=C6)Cl)O)S(=O)(=O)C(F)(F)F)CCO [AZD4320] (first compound max 1 µM, 7x7, partner max 1 µM), for which the Bliss excess is -0.0078 in assay [1]; -0.0084 in the assay with BT-20 (Breast Carcinoma); -0.0004 in [2]; -0.0067 in assay [3]; -0.0577 in the assay with EW-13 (Ewing's Sarcoma); -0.0221 in the assay on EW-18 (Ewing's Sarcoma). In addition, the Bliss excess in the assay with GOTO (Neuroblastoma) is 0.0166; in assay [4], -0.0642; in assay [5], -0.0553; in [6], -0.0487; in assay [7] it was -0.0473; in the assay with NH-12 (Neuroblastoma), -0.0131. In addition, the figures for the Bliss excess in [8] and in [9] were -0.0472 and 0.0076, respectively.

`Cc1c2c(nn1C)CSCc1cc(n(C)n1)CSc1cc(c3ccccc3c1)OCCCc1c(C(=O)O)n(C)c3c-2c(Cl)ccc13` [AZD5991] + Cc1cc2ncnn2cc1Nc1ncc2c(n1)n(C1CCOCC1)c(=O)n2C [AZD7648] (first compound max 1 µM, 7x7, partner max 10 µM): the Bliss excess in assay [1] was -0.0739; in the assay with BT-20 (Breast Carcinoma) it was -0.0139; in assay [2] it was -0.0512; in assay [3] it was -0.0127; in the assay on EW-13 (Ewing's Sarcoma), 0.014; with EW-18 (Ewing's Sarcoma), -0.0254. Further, the Bliss excess with GOTO (Neuroblastoma) is -0.02; in assay [10], 0.0025; in [11], -0.0095; in assay [12] it was 0.0017; in [4], -0.0307; in assay [5], -0.0391. Besides, the Bliss excess in assay [6] was -0.05; in assay [7], -0.0127; with NH-12 (Neuroblastoma), -0.061; in [8], -0.043; in [9], -0.0199; in assay [13], -0.0716. In addition, the Bliss excess in [14] is -0.0302.

Consider `CCN(CCO)CCCOc1ccc2c(Nc3cc(CC(=O)Nc4cccc(F)c4)[nH]n3)ncnc2c1` [AZD2811] + C[C@@H]1COCCN1C2=NC(=NC(=C2)C3(CC3)[S@](=N)(=O)C)C4=C5C=CNC5=NC=C4 [AZD6738] (first compound max 1 µM, 7x7, partner max 10 µM), for which the Bliss excess in [1] is -0.0367; in the assay on BT-20 (Breast Carcinoma), -0.0356; in assay [2] it was -0.0537; in [3], -0.0182; in the assay with EW-13 (Ewing's Sarcoma) it was -0.0257; in the assay on EW-18 (Ewing's Sarcoma) it was -0.0831. Also, the Bliss excess in the assay with GOTO (Neuroblastoma) was 0.027; in assay [10], -0.0723; in assay [15] it was -0.0424; in [11] it was -0.112; in assay [12] it was -0.0882; in assay [4] it was -0.0583. In addition, the Bliss excess in assay [5] was -0.0526; in assay [6], -0.0484; in assay [7], -0.0145; in the assay with NH-12 (Neuroblastoma), 0.0347; in assay [8], -0.0542; in assay [13], -0.0594. For the same compound, in assay [14], the Bliss excess was -0.0853.

`CCN(CCO)CCCOc1ccc2c(Nc3cc(CC(=O)Nc4cccc(F)c4)[nH]n3)ncnc2c1` [AZD2811] + O=C(c1cc(Cc2n[nH]c(=O)c3ccccc23)ccc1F)N1CCN(C(=O)C2CC2)CC1 [Olaparib] (first compound max 1 µM, 7x7, partner max 10 µM): the Bliss excess in assay [1] was 0.0118; in the assay with BT-20 (Breast Carcinoma), 0.0358; in assay [2] it was -0.0212; in [3], -0.0077; in the assay with EW-13 (Ewing's Sarcoma) it was -0.0532; with EW-18 (Ewing's Sarcoma), -0.0534. In addition, the Bliss excess was 0.0341 in the assay on GOTO (Neuroblastoma); -0.0353 in [10]; 0.0524 in assay [15]; -0.0579 in assay [11]; -0.0598 in [12]; 0.0461 in assay [4]. Also, the Bliss excess in assay [5] was -0.0075; in assay [6] it was -0.0063; in assay [7] it was -0.0203; with NH-12 (Neuroblastoma), 0.0109; in [8], -0.0255; in [13], -0.0188. In addition, the Bliss excess in assay [14] is -0.0949.

On to `C=CCn1c(=O)c2cnc(Nc3ccc(N4CCN(C)CC4)cc3)nc2n1-c1cccc(C(C)(C)O)n1` [AZD1775] + C1CN(CCC1(C(=O)N[C@@H](CCO)C2=CC=C(C=C2)Cl)N)C3=NC=NC4=C3C=CN4 [Capivasertib] (first compound max 3 µM, partner max 3 µM), for which the Bliss excess is -0.0086 in assay [1]; -0.0742 with BT-20 (Breast Carcinoma); 0.0291 in [2]; -0.0602 in [3]; 0.0244 with EW-18 (Ewing's Sarcoma); -0.0109 in the assay with GOTO (Neuroblastoma). Further, the Bliss excess was -0.0422 in assay [10]; 0.0724 in assay [15]; -0.0687 in [11]; -0.0233 in assay [12]; -0.0301 in assay [4]; -0.0891 in [5]. The Bliss excess is 0.0152 in [6]; -0.0372 in [7]; -0.0728 in the assay with NH-12 (Neuroblastoma); -0.101 in [8]; -0.0268 in assay [9]; 0.0038 in assay [13]. Besides, the Bliss excess in [14] was -0.0226.

For the compound `CN(C)CCCOc1ccc(-c2ccc3ncc4c(c3c2)n(C2CCOCC2)c(=O)n4C)cn1` [AZD0156] + CCN(CCO)CCCOc1ccc2c(Nc3cc(CC(=O)Nc4cccc(F)c4)[nH]n3)ncnc2c1 [AZD2811] (first compound max 1 µM, 7x7, partner max 1 µM), the Bliss excess in assay [1] is 0.0032; with BT-20 (Breast Carcinoma), -0.0276; in [2], -0.0331; in [3], -0.0117; in the assay on EW-13 (Ewing's Sarcoma) it was 0.009; with EW-18 (Ewing's Sarcoma), -0.0219. The Bliss excess is 0.129 with GOTO (Neuroblastoma); -0.0504 in [10]; 0.0232 in assay [15]; -0.0173 in assay [11]; -0.108 in assay [12]; -0.024 in [4]. Moreover, the Bliss excess in assay [5] is -0.0241; in assay [6], -0.0448; in assay [7], -0.0019; in the assay on NH-12 (Neuroblastoma), -0.0263; in [8], -0.0314; in [13], -0.014. Moreover, in assay [14], the Bliss excess was -0.0476.

On to `Cc1c2c(nn1C)CSCc1cc(n(C)n1)CSc1cc(c3ccccc3c1)OCCCc1c(C(=O)O)n(C)c3c-2c(Cl)ccc13` [AZD5991] + C1CN(CCC1(C(=O)N[C@@H](CCO)C2=CC=C(C=C2)Cl)N)C3=NC=NC4=C3C=CN4 [Capivasertib] (first compound max 1 µM, 7x7, partner max 3 µM), for which the Bliss excess was -0.0769 in assay [1]; 0.131 with BT-20 (Breast Carcinoma); -0.0621 in assay [2]; 0.0259 in [3]; 0.0256 in the assay on EW-13 (Ewing's Sarcoma); 0.0118 in the assay on GOTO (Neuroblastoma). In addition, the Bliss excess in [10] was -0.0227; in [15], 0.138; in [11], -0.0468; in [12], 0.0364; in assay [4] it was 0.0122; in assay [5] it was -0.0402. Moreover, the Bliss excess was 0.0198 in assay [6]; -0.0056 in assay [7]; 0.0395 in the assay on NH-12 (Neuroblastoma); -0.0651 in [8]; 0.0384 in [9]; -0.0113 in assay [13]. In [14], the Bliss excess is -0.0416.

The values are drawn from the supplement of paper PMC11061612.
